Laboratory results as given in patent publication US20110086759A1, “CHEMICAL COMPOUNDS” (SYNGENTA CROP PROTECTION, INC., priority 2007, published 2011).

Key:
Assay type in all cases: in vivo
[1] = test system: Alopecurus myosuroides (ALOMY); test: Pre-emergence biological efficacy, glasshouse pot test; conditions: 312 h, pre-emergence, 1,000 g/ha, evaluated after 13 days (100=total damage; 0=no damage), read-out: Percentage damage ALOMY
Procedure: (§1) Seeds of Alopecurus myosuroides (ALOMY), Setaria faberi (SETFA), Echinochloa crus-galli (ECHCG), Solanum nigrum (SOLNI), Amaranthus retoflexus (AMARE) and Ipomea hederaceae (IPOHE) were sown in standard soil in pots. After cultivation for one day under controlled conditions in a glasshouse (at 24/16° C., day/night; 14 hours light; 65% humidity), the plants were sprayed with an aqueous spray solution derived from the formulation of the technical active ingredient in acetone/water (50:50) solution containing 0.5% Tween 20 (polyoxyethelyene sorbitan monolaurate, CAS RN 9005-64-5) to give a final dose of 1000 or 250 g/ha of test compound.
(§2) The test plants were then grown under controlled conditions in the glasshouse (at 24/16° C., day/night; 14 hours light; 65% humidity) and watered twice daily. After 13 days the test was evaluated (100=total damage to plant; 0=no damage to plant).

Solanum nigrum (SOLNI) [2] = test: as above; conditions: 312 h, pre-emergence, 1,000 g/ha, evaluated after 13 days (100=total damage; 0=no damage), read-out: Percentage damage SOLNI
Procedure: as §1, §2

[3] = test system: Ipomea hederaceae (IPOHE); test: as above; conditions: Ipomoea hederacea, 312 h; pre-emergence, 1,000 g/ha, evaluated after 13 days (100=total damage; 0=no damage); read-out: Percentage damage IPOHE
Procedure: as §1, §2

[4] = test system: Amaranthus retoflexus (AMARE); test: as above; conditions: Amaranthus retroflexus, 312 h; pre-emergence, 1,000 g/ha, evaluated after 13 days (100=total damage; 0=no damage); read-out: Percentage damage AMARE
Procedure: as §1, §2

Setaria faberi (SETFA) [5] = test: as above; conditions: 312 h, pre-emergence, 1,000 g/ha, evaluated after 13 days (100=total damage; 0=no damage), read-out: Percentage damage SETFA
Procedure: as §1, §2

[6] = test system: Echinochloa crus-galli (ECHCG); test: as above; conditions: 312 h, pre-emergence, 1,000 g/ha, evaluated after 13 days (100=total damage; 0=no damage), read-out: Percentage damage ECHCG
Procedure: as §1, §2

[7] = test system: Alopecurus myosuroides (ALOMY); test: Post-emergence biological efficacy, glasshouse pot test; conditions: 312 h, post-emergence, 1,000 g/ha, evaluated after 13 days (100=total damage; 0=no damage), read-out: Percentage damage caused to weed species, ALOMY
Procedure: as §1, with “8 days” for “one day”
(§3) The test plants were then grown on under controlled conditions in a glasshouse (at 24/16° C., day/night; 14 hours light; 65% humidity) and watered twice daily. After 13 days the test was evaluated (100=total damage to plant; 0=no damage to plant).

Solanum nigrum (SOLNI) [8] = test: as above; conditions: 312 h, post-emergence, 1,000 g/ha, evaluated after 13 days (100=total damage; 0=no damage), read-out: Percentage damage caused to weed species, SOLNI
Procedure: as §1, with “8 days” for “one day”
as §3

[9] = test system: Ipomea hederaceae (IPOHE); test: as above; conditions: Ipomoea hederacea, 312 h; post-emergence, 1,000 g/ha, evaluated after 13 days (100=total damage; 0=no damage); read-out: Percentage damage caused to weed species, IPOHE
Procedure: as §1, with “8 days” for “one day”
as §3

[10] = test system: Amaranthus retoflexus (AMARE); test: as above; conditions: Amaranthus retroflexus, 312 h; post-emergence, 1,000 g/ha, evaluated after 13 days (100=total damage; 0=no damage); read-out: Percentage damage caused to weed species, AMARE
Procedure: as §1, with “8 days” for “one day”
as §3

Setaria faberi (SETFA) [11] = test: as above; conditions: 312 h, post-emergence, 1,000 g/ha, evaluated after 13 days (100=total damage; 0=no damage), read-out: Percentage damage caused to weed species, SETFA
Procedure: as §1, with “8 days” for “one day”
as §3

[12] = test system: Echinochloa crus-galli (ECHCG); test: as above; conditions: 312 h, post-emergence, 1,000 g/ha, evaluated after 13 days (100=total damage; 0=no damage), read-out: Percentage damage caused to weed species, ECHCG
Procedure: as §1, with “8 days” for “one day”
as §3

Structure (SMILES)	pest or weed control at 1000 g/ha [1]	pest or weed control at 1000 g/ha (Solanum nigrum (SOLNI) [2])	pest or weed control at 1000 g/ha [3]	pest or weed control at 1000 g/ha [4]	pest or weed control at 1000 g/ha (Setaria faberi (SETFA) [5])	pest or weed control at 1000 g/ha [6]	pest or weed control at 1000 g/ha [7]	pest or weed control at 1000 g/ha (Solanum nigrum (SOLNI) [8])	pest or weed control at 1000 g/ha [9]	pest or weed control at 1000 g/ha [10]	pest or weed control at 1000 g/ha (Setaria faberi (SETFA) [11])	pest or weed control at 1000 g/ha [12]
COC(=O)c1nc(C2CC2)nc(N[C@H]2COC[C@H]2O)c1Cl [4-38 (S,S), 5-Chloro-2-cyclopropyl-4-[(3S, 4S)-4-hydroxytetra-hydrofuran-3-ylamino]-6-methoxycarbonyl-pyrimidine]	20%	80%	70%	100%	30%	30%	30%	80%	30%	100%	60%	10%
COC(=O)c1nc(C2CC2)nc(N[C@@H](C)C2CCCCC2)c1Cl [4-173 (S), 5-Chloro-4-[(1S)-1-(cyclohexyl)ethyl-amino]-2-cyclopropyl-6-methoxycarbonyl-pyrimidine]	0%	0%	0%	20%	0%	0%	0%	20%	40%	20%	0%	0%
COC(=O)c1nc(C2CC2)nc(N[C@@H](C)c2cccc(OC)c2)c1Cl [4-180 (S), (S)-5-Chloro-2-cyclopropyl-6-methoxycarbonyl-4-[1-(3-methoxy-phenyl)ethylamino]-pyrimidine]	0%	10%	80%	20%	0%	0%	20%	70%	80%	80%	30%	50%
COC(=O)c1nc(C2CC2)nc(N[C@@H](C)c2ccc(OC)cc2)c1Cl [4-181 (S), (S)-5-Chloro-2-cyclopropyl-6-methoxycarbonyl-4-[1-(4-methoxy-phenyl)ethylamino]-pyrimidine]	20%	60%	80%	60%	0%	50%	30%	90%	90%	100%	40%	50%
COC(=O)c1nc(C2CC2)nc(N[C@H](C)c2cccc3ccccc23)c1Cl [4-184 (R), (R)-5-Chloro-2-cyclopropyl-6-methoxycarbonyl-4-[1-(naphth-1-yl)ethylamino]-pyrimidine]	0%	0%	0%	0%	0%	0%	10%	60%	70%	80%	20%	40%
COC(=O)c1nc(C2CC2)nc(N[C@H](C)c2ccc3ccccc3c2)c1Cl [4-185 (R), (R)-5-Chloro-2-cyclopropyl-6-methoxycarbonyl-4-[1-(naphtha-2-yl)ethylamino]-pyrimidine]	0%	0%	70%	0%	0%	0%	0%	40%	70%	80%	0%	0%
COC(=O)c1nc(C2CC2)nc(N[C@@H](CO)c2ccccc2)c1Cl [4-203 (R), 5-Chloro-2-cyclopropyl-4-[(1R)-2-hydroxy-1-phenyl-ethylamino]-6-methoxycarbonyl-pyrimidine]	20%	80%	100%	90%	30%	20%	20%	80%	50%	100%	40%	30%
COC(=O)c1nc(C2CC2)nc(N[C@H](CO)c2ccccc2)c1Cl [4-203 (S), 5-Chloro-2-cyclopropyl-4-[(1S)-2-hydroxy-1-phenyl-ethylamino]-6-methoxycarbonyl-pyrimidine]	20%	80%	80%	70%	40%	20%	30%	80%	70%	100%	50%	30%
COC(=O)c1nc(C2CC2)nc(N[C@@H](C)[C@H](O)c2ccccc2)c1Cl [4-270 (1S,2R), 5-Chloro-2-cyclopropyl-4-[(1S, 2R)-2-hydroxy-1-methyl-2-phenyl-ethylamino]-6-methoxycarbonyl-pyrimidine]	20%	80%	100%	70%	30%	20%	40%	100%	100%	100%	80%	30%
COC(=O)c1nc(C2CC2)nc(N[C@H](C)[C@@H](O)c2ccccc2)c1Cl [4-270 (erythro), 5-Chloro-2-cyclopropyl-4-(erythro-2-hydroxy-1-methyl-2-phenyl-ethylamino)-6-methoxycarbonyl-pyrimidine]	30%	80%	100%	80%	30%	30%	30%	80%	100%	100%	80%	60%
